{
  "source": "paper PMC5218480",
  "about": "(PLoS ONE, 2017)",
  "system": "MV-4-11 cells",
  "assay": "Gene expression microarray analysis (Affymetrix PrimeView) and GSEA",
  "type": "cell-based, human",
  "parameters": "RFU PODN (11730768_x_at) / Fold change /veh PODN (11730768_x_at) / RFU LINC00158 (11744669_a_at) / Fold change /veh LINC00158 (11744669_a_at) / RFU DUSP10 (11751237_a_at) / Fold change /veh DUSP10 (11751237_a_at) / RFU ID3 (11757404_x_at) / Fold change /veh ID3 (11757404_x_at) / RFU PLEKHG5 (11737974_s_at) / Fold change /veh PLEKHG5 (11737974_s_at) / RFU LRRC4B (11730491_at) / Fold change /veh LRRC4B (11730491_at) / RFU GIMAP4 (11747438_a_at) / Fold change /veh GIMAP4 (11747438_a_at) / RFU KRT8 (11758183_x_at) / Fold change /veh KRT8 (11758183_x_at) / RFU CNN1 (11734310_a_at) / Fold change /veh CNN1 (11734310_a_at) / RFU VPS37D (11726825_at) / Fold change /veh VPS37D (11726825_at) / RFU C10orf10 (11716522_x_at) / Fold change /veh C10orf10 (11716522_x_at) / RFU KIR2DL2 /// KIR2DL4 /// KIR2DL5A /// KIR2DL5B /// KIR2DS1 /// KIR2DS2 /// KIR2DS3 /// KIR2DS4 /// KIR3DL3 /// KIR3DL3 /// KIR3DS1 (11738374_at) / Fold change /veh KIR2DL2 /// KIR2DL4 /// KIR2DL5A /// KIR2DL5B /// KIR2DS1 /// KIR2DS2 /// KIR2DS3 /// KIR2DS4 /// KIR3DL3 /// KIR3DL3 /// KIR3DS1 (11738374_at) / RFU C1QL1 (11718748_at) / Fold change /veh C1QL1 (11718748_at) / RFU TMPRSS4 (11747572_a_at) / Fold change /veh TMPRSS4 (11747572_a_at) / RFU HAMP (11756126_x_at) / Fold change /veh HAMP (11756126_x_at) / RFU RNFT2 (11725882_a_at) / Fold change /veh RNFT2 (11725882_a_at) / RFU NR4A2 (11747474_a_at) / Fold change /veh NR4A2 (11747474_a_at) / RFU ABCC12 (11746883_a_at) / Fold change /veh ABCC12 (11746883_a_at) / RFU TMEM136 (11760407_x_at) / Fold change /veh TMEM136 (11760407_x_at) / RFU CLDN22 /// WWC2 (11732394_at) / Fold change /veh CLDN22 /// WWC2 (11732394_at) / RFU HLA-DPB1 (11760878_x_at) / Fold change /veh HLA-DPB1 (11760878_x_at) / RFU SPINT1 (11716480_a_at) / Fold change /veh SPINT1 (11716480_a_at) / RFU GAP43 (11754022_s_at) / Fold change /veh GAP43 (11754022_s_at) / RFU A4GNT (11735810_at) / Fold change /veh A4GNT (11735810_at) / RFU PRB3 (11715151_x_at) / Fold change /veh PRB3 (11715151_x_at) / RFU TUBB4B (11761932_at) / Fold change /veh TUBB4B (11761932_at) / RFU CAPN14 (11732068_a_at) / Fold change /veh CAPN14 (11732068_a_at) / RFU TMCC2 (11721928_a_at) / Fold change /veh TMCC2 (11721928_a_at) / RFU IRGQ (11745062_a_at) / Fold change /veh IRGQ (11745062_a_at) / RFU FAM174B (11720279_a_at) / Fold change /veh FAM174B (11720279_a_at) / RFU TMPRSS4 (11748680_a_at) / Fold change /veh TMPRSS4 (11748680_a_at) / RFU FAM212B (11763350_a_at) / Fold change /veh FAM212B (11763350_a_at) / RFU PLEKHG5 (11743358_a_at) / Fold change /veh PLEKHG5 (11743358_a_at) / RFU ZSCAN30 (11745921_a_at) / Fold change /veh ZSCAN30 (11745921_a_at) / RFU CMKLR1 (11741424_a_at) / Fold change /veh CMKLR1 (11741424_a_at) / RFU LOC101060620 /// MAPK8IP1 (11723275_at) / Fold change /veh LOC101060620 /// MAPK8IP1 (11723275_at) / RFU SPTSSB (11747773_x_at) / Fold change /veh SPTSSB (11747773_x_at) / RFU PRSS12 (11739890_at) / Fold change /veh PRSS12 (11739890_at) / RFU BIN1 (11741810_x_at) / Fold change /veh BIN1 (11741810_x_at) / RFU WNT11 (11732464_a_at) / Fold change /veh WNT11 (11732464_a_at) / RFU C10orf10 (11716521_a_at) / Fold change /veh C10orf10 (11716521_a_at) / RFU C5orf56 (11738089_at) / Fold change /veh C5orf56 (11738089_at) / RFU CYB561 (11721691_x_at) / Fold change /veh CYB561 (11721691_x_at) / RFU ANKRD19P (11752326_a_at) / Fold change /veh ANKRD19P (11752326_a_at) / RFU OR2T12 /// OR2T33 /// OR2T8 (11738714_s_at) / Fold change /veh OR2T12 /// OR2T33 /// OR2T8 (11738714_s_at) / RFU VCAN (11748164_a_at) / Fold change /veh VCAN (11748164_a_at) / RFU JSRP1 (11732532_at) / Fold change /veh JSRP1 (11732532_at) / RFU KRTAP10-11 (11738290_x_at) / Fold change /veh KRTAP10-11 (11738290_x_at) / RFU MYO3A (11730013_a_at) / Fold change /veh MYO3A (11730013_a_at) / RFU EBF3 (11725865_a_at) / Fold change /veh EBF3 (11725865_a_at) / RFU CAMK2N1 (11719241_x_at) / Fold change /veh CAMK2N1 (11719241_x_at) / RFU C5orf56 (11738088_a_at) / Fold change /veh C5orf56 (11738088_a_at) / RFU OLFML3 (11715873_a_at) / Fold change /veh OLFML3 (11715873_a_at) / RFU LOC100653217 /// NTM (11731650_a_at) / Fold change /veh LOC100653217 /// NTM (11731650_a_at) / RFU MAPK11 (11762145_a_at) / Fold change /veh MAPK11 (11762145_a_at) / RFU FIZ1 (11724087_x_at) / Fold change /veh FIZ1 (11724087_x_at) / RFU OASL (11726364_x_at) / Fold change /veh OASL (11726364_x_at) / RFU SOX15 (11748057_x_at) / Fold change /veh SOX15 (11748057_x_at) / RFU CD79A (11719716_a_at) / Fold change /veh CD79A (11719716_a_at) / RFU HIST1H1D (11736915_at) / Fold change /veh HIST1H1D (11736915_at) / RFU CASKIN2 (11723855_a_at) / Fold change /veh CASKIN2 (11723855_a_at) / RFU LOC730098 (11760151_x_at) / Fold change /veh LOC730098 (11760151_x_at) / RFU OR4N2 (11742367_at) / Fold change /veh OR4N2 (11742367_at) / RFU PRRT2 (11749266_a_at) / Fold change /veh PRRT2 (11749266_a_at) / RFU SNX32 (11753110_a_at) / Fold change /veh SNX32 (11753110_a_at) / RFU CDHR5 (11726645_a_at) / Fold change /veh CDHR5 (11726645_a_at) / RFU RCAN1 (11760418_a_at) / Fold change /veh RCAN1 (11760418_a_at) / RFU FAM167A (11723789_a_at) / Fold change /veh FAM167A (11723789_a_at) / RFU FAM26E (11764081_at) / Fold change /veh FAM26E (11764081_at) / RFU ISYNA1 (11749810_s_at) / Fold change /veh ISYNA1 (11749810_s_at) / RFU ACY1 (11761880_at) / Fold change /veh ACY1 (11761880_at) / RFU 11764098_at / Fold change /veh 11764098_at / RFU SAMD14 (11745864_x_at) / Fold change /veh SAMD14 (11745864_x_at) / RFU NPB (11741838_a_at) / Fold change /veh NPB (11741838_a_at) / RFU TMPRSS6 (11731388_a_at) / Fold change /veh TMPRSS6 (11731388_a_at) / RFU KRTAP10-2 (11738614_at) / Fold change /veh KRTAP10-2 (11738614_at) / RFU ARHGAP8 /// PRR5-ARHGAP8 (11727945_x_at) / Fold change /veh ARHGAP8 /// PRR5-ARHGAP8 (11727945_x_at) / RFU KRTAP5-7 /// NADSYN1 (11734609_at) / Fold change /veh KRTAP5-7 /// NADSYN1 (11734609_at) / RFU RASL12 (11751679_a_at) / Fold change /veh RASL12 (11751679_a_at) / RFU CDKN2B (11736163_a_at) / Fold change /veh CDKN2B (11736163_a_at) / RFU PRF1 (11729649_at) / Fold change /veh PRF1 (11729649_at) / RFU, ZNF638 /// ZNF638-IT1 / Fold change vs veh, ZNF638 /// ZNF638-IT1 / RFU, PANK3 / Fold change vs veh, PANK3 / RFU, SH3YL1 / Fold change vs veh, SH3YL1 / RFU, ZEB2 / Fold change vs veh, ZEB2 / RFU, NRIP1 / Fold change vs veh, NRIP1 / RFU, PTTG1IP / Fold change vs veh, PTTG1IP / RFU, CAPN2 / Fold change vs veh, CAPN2 / RFU, MED14 / Fold change vs veh, MED14 / RFU, SNORA58 / Fold change vs veh, SNORA58 / RFU, C1orf63 / Fold change vs veh, C1orf63 / RFU, LRRFIP1 / Fold change vs veh, LRRFIP1 / RFU, NDUFAF7 / Fold change vs veh, NDUFAF7 / RFU, SLC12A2 / Fold change vs veh, SLC12A2 / RFU, IBTK / Fold change vs veh, IBTK / RFU, ESF1 / Fold change vs veh, ESF1 / Fold change vs veh, TMEM50B / RFU, TAOK1 / Fold change vs veh, TAOK1 / RFU, ACBD3 / Fold change vs veh, ACBD3 / RFU, TMA16 / Fold change vs veh, TMA16 / RFU, RWDD3 / Fold change vs veh, RWDD3 / RFU, BCAT1 / Fold change vs veh, BCAT1 / RFU, EDEM3 / Fold change vs veh, EDEM3 / RFU, TMEM33 / Fold change vs veh, TMEM33 / RFU, WDR75 / Fold change vs veh, WDR75 / RFU, AHCTF1 / Fold change vs veh, AHCTF1 / RFU, TFRC / Fold change vs veh, TFRC / RFU, ZDHHC17 / Fold change vs veh, ZDHHC17 / RFU, NOM1 / Fold change vs veh, NOM1 / RFU, ARL8B / Fold change vs veh, ARL8B / RFU, ZBTB11 / Fold change vs veh, ZBTB11 / RFU, TAMM41 / Fold change vs veh, TAMM41 / RFU, KIAA1704 /// LOC100996395 / Fold change vs veh, KIAA1704 /// LOC100996395 / RFU, ING1 / Fold change vs veh, ING1 / RFU, TRMT61B / Fold change vs veh, TRMT61B / RFU, FUBP3 / Fold change vs veh, FUBP3 / RFU, TP53 / Fold change vs veh, TP53 / RFU, TNKS2 / Fold change vs veh, TNKS2 / RFU, ZFP14 / Fold change vs veh, ZFP14 / RFU, ACTR2 / Fold change vs veh, ACTR2 / RFU, PPP3R1 / Fold change vs veh, PPP3R1 / RFU, PIK3R1 / Fold change vs veh, PIK3R1 / RFU, HNRNPA1 / Fold change vs veh, HNRNPA1 / RFU, RNF170 / Fold change vs veh, RNF170 / RFU, ZNF28 / Fold change vs veh, ZNF28 / RFU, RNGTT / Fold change vs veh, RNGTT / RFU, OGT / Fold change vs veh, OGT / RFU, BRD1 / Fold change vs veh, BRD1 / RFU, MARS / Fold change vs veh, MARS / RFU, ZNF655 / Fold change vs veh, ZNF655 / RFU, FAHD1 / Fold change vs veh, FAHD1 / RFU, BDP1 / Fold change vs veh, BDP1 / RFU, LRRCC1 / Fold change vs veh, LRRCC1 / RFU, ARID1A / Fold change vs veh, ARID1A / RFU, ZNF146 / Fold change vs veh, ZNF146 / RFU, ZNF330 / Fold change vs veh, ZNF330 / RFU, GPN3 / Fold change vs veh, GPN3 / RFU, C9orf123 / Fold change vs veh, C9orf123 / RFU, N4BP2L2 / Fold change vs veh, N4BP2L2 / RFU, ARFIP1 / Fold change vs veh, ARFIP1 / RFU, FAM179B / Fold change vs veh, FAM179B / RFU, BCL10 / Fold change vs veh, BCL10 / RFU, UHRF1BP1L / Fold change vs veh, UHRF1BP1L / RFU, BET1 / Fold change vs veh, BET1 / RFU, CNOT2 / Fold change vs veh, CNOT2 / RFU, ZNF268 / Fold change vs veh, ZNF268 / Fold change vs veh, ZNF507 / RFU, DGCR2 / Fold change vs veh, DGCR2 / RFU, WDSUB1 / Fold change vs veh, WDSUB1 / Fold change vs veh, HSP90B1 /// MIR3652 / RFU, ADSS / Fold change vs veh, ADSS / RFU, GK / Fold change vs veh, GK / RFU, ZNF148 / Fold change vs veh, ZNF148 / RFU, TAF9 / Fold change vs veh, TAF9 / RFU, SLC1A5 / Fold change vs veh, SLC1A5 / RFU, SLMO2 / Fold change vs veh, SLMO2 / RFU, ABCC4 / Fold change vs veh, ABCC4 / RFU, LOC101060439 /// RAP1B / Fold change vs veh, LOC101060439 /// RAP1B / RFU, RFX7 / Fold change vs veh, RFX7 / RFU, GTPBP10 / Fold change vs veh, GTPBP10 / RFU, CNEP1R1 / Fold change vs veh, CNEP1R1 / RFU, BIVM-ERCC5 /// ERCC5 / Fold change vs veh, BIVM-ERCC5 /// ERCC5 / RFU, ILF3 / Fold change vs veh, ILF3 / RFU 11762660_at / Fold change /veh 11762660_at / RFU VCAN (11757783_s_at) / Fold change /veh VCAN (11757783_s_at) / RFU DDX43 (11728927_at) / Fold change /veh DDX43 (11728927_at) / RFU KRT8 (11758188_x_at) / Fold change /veh KRT8 (11758188_x_at) / RFU NKD1 (11759106_at) / Fold change /veh NKD1 (11759106_at) / RFU SRD5A1 (11742802_a_at) / Fold change /veh SRD5A1 (11742802_a_at) / RFU TPSAB1 /// TPSB2 (11721975_s_at) / Fold change /veh TPSAB1 /// TPSB2 (11721975_s_at) / RFU GSTM3 (11746129_a_at) / Fold change /veh GSTM3 (11746129_a_at) / RFU IL23R (11737362_x_at) / Fold change /veh IL23R (11737362_x_at) / RFU TMEM51 (11727254_a_at) / Fold change /veh TMEM51 (11727254_a_at) / RFU PIWIL2 (11732686_x_at) / Fold change /veh PIWIL2 (11732686_x_at) / RFU ORM1 (11744905_x_at) / Fold change /veh ORM1 (11744905_x_at) / RFU CCDC152 (11743942_at) / Fold change /veh CCDC152 (11743942_at) / RFU ECM1 (11717891_a_at) / Fold change /veh ECM1 (11717891_a_at) / RFU IL23R (11748794_a_at) / Fold change /veh IL23R (11748794_a_at) / RFU TNFAIP8L3 (11732012_x_at) / Fold change /veh TNFAIP8L3 (11732012_x_at) / RFU MBOAT4 (11741988_at) / Fold change /veh MBOAT4 (11741988_at) / RFU 11764193_at / Fold change /veh 11764193_at / RFU TMEM53 (11763286_at) / Fold change /veh TMEM53 (11763286_at) / RFU MAGEB2 (11727129_at) / Fold change /veh MAGEB2 (11727129_at) / RFU TMEM200A (11744735_a_at) / Fold change /veh TMEM200A (11744735_a_at) / RFU CCDC152 (11751479_a_at) / Fold change /veh CCDC152 (11751479_a_at) / RFU FAM211A (11726209_a_at) / Fold change /veh FAM211A (11726209_a_at) / RFU RGS16 (11746705_a_at) / Fold change /veh RGS16 (11746705_a_at) / RFU VCAN (11755009_s_at) / Fold change /veh VCAN (11755009_s_at) / RFU RHOB (11743442_s_at) / Fold change /veh RHOB (11743442_s_at) / RFU RGS16 (11720943_a_at) / Fold change /veh RGS16 (11720943_a_at) / RFU RGS16 (11720944_at) / Fold change /veh RGS16 (11720944_at) / RFU, VPS4B / Fold change vs veh, VPS4B / RFU, CREB1 / Fold change vs veh, CREB1 / RFU, DNAJC13 / Fold change vs veh, DNAJC13 / RFU, GNAQ / Fold change vs veh, GNAQ / RFU, CDK5R1 / Fold change vs veh, CDK5R1 / RFU, ZRANB3 / Fold change vs veh, ZRANB3 / RFU, CUL4A / Fold change vs veh, CUL4A / RFU, CCNY / Fold change vs veh, CCNY / RFU, UFL1 / Fold change vs veh, UFL1 / RFU, COG3 / Fold change vs veh, COG3 / RFU, DIAPH2 / Fold change vs veh, DIAPH2 / RFU, SKA2 / Fold change vs veh, SKA2 / RFU, AFF3 / Fold change vs veh, AFF3 / RFU, LMF1 / Fold change vs veh, LMF1 / RFU, IPO11 / Fold change vs veh, IPO11 / RFU, DFFB / Fold change vs veh, DFFB / RFU, FOXP1 / Fold change vs veh, FOXP1 / RFU, CARD8 / Fold change vs veh, CARD8 / RFU, STRN3 / Fold change vs veh, STRN3 / RFU, ADK / Fold change vs veh, ADK / RFU, RASSF2 / Fold change vs veh, RASSF2 / RFU, WIPF1 / Fold change vs veh, WIPF1 / RFU, LARP1B / Fold change vs veh, LARP1B / RFU, RASA1 / Fold change vs veh, RASA1 / RFU, RB1 / Fold change vs veh, RB1 / RFU, PPFIA1 / Fold change vs veh, PPFIA1 / RFU, MAT2A / Fold change vs veh, MAT2A / RFU, CCT5 / Fold change vs veh, CCT5 / RFU, WDR92 / Fold change vs veh, WDR92 / RFU, CUX1 / Fold change vs veh, CUX1 / RFU, TTC7A / Fold change vs veh, TTC7A / RFU, TMEM135 / Fold change vs veh, TMEM135 / RFU, DEPTOR / Fold change vs veh, DEPTOR / RFU, CPM / Fold change vs veh, CPM / RFU, DNAJB6 / Fold change vs veh, DNAJB6 / RFU, CACNA2D3 / Fold change vs veh, CACNA2D3 / RFU, DTX4 / Fold change vs veh, DTX4 / RFU, TFCP2 / Fold change vs veh, TFCP2 / RFU, GMCL1 /// GMCL1P1 / Fold change vs veh, GMCL1 /// GMCL1P1 / RFU, AEBP2 / Fold change vs veh, AEBP2 / RFU, SNHG1 /// SNORD22 /// SNORD25 /// SNORD26 /// SNORD27 /// SNORD28 /// SNORD29 /// SNORD31 / Fold change vs veh, SNHG1 /// SNORD22 /// SNORD25 /// SNORD26 /// SNORD27 /// SNORD28 /// SNORD29 /// SNORD31 / Fold change (Aza/veh), C12orf56 (ProbeSet 11735607_a_at) / Fold change (ACY-1035/veh), C12orf56 (ProbeSet 11735607_a_at) / Fold change (Aza/veh), FGFR1OP (ProbeSet 11751329_s_at) / Fold change (ACY-1035/veh), FGFR1OP (ProbeSet 11751329_s_at) / Fold change (Aza/veh), VPS36 (ProbeSet 11739960_a_at) / Fold change (ACY-1035/veh), VPS36 (ProbeSet 11739960_a_at) / RFU SYPL1 (11715823_x_at) / Fold change /veh SYPL1 (11715823_x_at) / RFU IGFBP7 (11715501_s_at) / Fold change /veh IGFBP7 (11715501_s_at) / RFU REEP3 (11722064_at) / Fold change /veh REEP3 (11722064_at) / RFU IGLL1 (11728026_x_at) / Fold change /veh IGLL1 (11728026_x_at): dose or concentration left out as unconfirmed",
  "details": "ProbeSet 11740781_a_at; LIST B",
  "data": [
    {"smiles": "Nc1ccc(-c2cccs2)cc1NC(=O)c1ccc2c(c1)cc(C1CC1)n2CCN1CCOCC1", "note": "[ACY-1035]", "values": [
      {"measurement": "Fold change vs veh, ILF3", "value": 0.88}
    ]}
  ]
}
